In patent US12234257B2, “Triterpene saponin derivative and use thereof” (KOREA INSTITUTE OF SCIENCE AND TECHNOLOGY, priority 2020, dated 2025):
Entries after “also recorded” stand apart in the source; their conditions may differ.

Columns and labels:
Assay type in all cases: cell-based, human
[1] = system: GFP-RFP-LC3-II puncta in SH-SY5Y cells; assay: Tandem fluorescent protein quenching assay (RFP-GFP-LC3); settings: transfected SH-SY5Y cells, AKNS-2 10 μM + Baf 100 nM
Experimental: SH-SY5Y cells were cultured in a 24-well plate at a density of 8×10^4 cells/well on a glass cover slip. Transfection was performed in accordance with guidelines of the autophagy tandem RFP-GFP-LC3B kit. After culturing the cells for 24 hours, the cells were treated with an LC3B reagent. After the transfected cells were incubated for 24 hours, 50 nM Wart or 100 nM Baf was administered thereto, and then AKNS-2 (10 μM) was added thereto. The cells were immobilized with 4% paraformaldehyde and permeabilized with 0.1% Triton X100. Nuclei thereof were stained with 4,6-diamidino-2-phenylindole (DAPI, 25 μg/mL). Fluorescent signals were detected using a confocal microscope (Leica, Solms, Germany).

[2] = system: LC3, p62, TH and α-synuclein in SH-SY5Y cells; assay: Western blot of LC3, p62, TH and α-synuclein in MPP^+-treated SH-SY5Y cells (in vitro PD model)
Experimental: (§1) Human neuroblastoma (SH-SY5Y) cells were purchased from the American Type Culture Collection (Manassas, Va., USA) and cultured in DMEM supplemented with 10% heat-inactivated FBS and 1% penicillin/streptomycin. The SH-SY5Y cells were cultured at 37° C. in a humid atmosphere containing 5% CO2. […] The SH-SY5Y cells were transfected with AMPK siRNA and then administered with AKNS-2 at 36 hours after siRNA transfection. […] After 24 hours from treatment with the samples, the SH-SY5Y cells were recovered and used for subsequent analysis. At 24 hours after drug treatment, the culture medium was removed from the 6-well plate, and the cells were gently washed once with cold saline. Subsequently, 1 mL of cold saline was added to each well, and cells attached to the bottom were floated by rubbing the bottom with a 1 mL pipette. The suspension was collected in a 1.5 mL tube and centrifuged at 4° C. at 13000×g for 5 minutes. After removing a supernatant, 50 μL of a RIPA lysis buffer including a protease inhibitor cocktail (Roche, Mannheim, Germany) and purchased from Cell Signaling Technology (Danvers, Mass., USA) was added to the cell pellet. After shaking the mixture at 4° C. for 30 minutes, the obtained cells were centrifuged at 4° C. at 13000×g for 20 minutes. A supernatant was collected therefrom, and a concentration of proteins was measured using a standard curve constructed using BSA by the Bradford method. Then, the supernatant was diluted with a loading buffer and heated at 99° C. for 5 minutes. Resultant cells were used in a subsequent western blot analysis. Protein markers contained in lysates of the SH-SY5Y cells and brain tissue of the mice (SNpc and ST) were measured by western blot analysis. Briefly, after determining a concentration, a protein sample (20 μg) was separated by 8%, 10%, or 15% sodium dodecyl sulfate-polyacrylamide gel electrophoresis (SDS-PAGE). Then, proteins separated on the gel were transferred to a polyvinylidene fluoride (PVDF) membrane for 45 minutes using a Trans-Blot Turbo Transfer System (Bio-Rad, USA). […] The membrane was further incubated with monoclonal primary antibodies derived from rabbits (anti-GAPDH, anti-AMPK, anti-p-AMPK, anti-ULK, anti-p-ULK555, anti-Erk, anti-p-Erk, anti-mTOR, anti-p-mTOR, anti-LC3B, anti-TH, and anti-α-synuclein antibodies). The primary antibodies were diluted in a blocking buffer at a ratio of 1:1000 and incubated overnight at 4° C. On the second day, the membrane was washed with TBST three times (10 minutes each) and incubated at room temperature in a horseradish peroxidase-conjugated goat anti-rabbit IgG secondary antibody (diluted in a blocking buffer at a ratio of 1:2000). After incubating in the secondary antibody for 1 hour, the membrane was washed for 30 minutes. The protein blots on the membrane were developed using an ECL detection kit and visualized using an LAS-4000 mini system (Fujifilm, Japan). The intensity of the protein blots was quantified using Multi Gauge software (Fujifilm, Japan).

[3] = system: autophagy-related protein markers (LC3-II, p62, p-AMPK, p-Erk, p-ULK, p-mTOR) in SH-SY5Y cells; assay: Western blot of autophagy-related protein markers in SH-SY5Y cells
Experimental: as §1

SH-SY5Y cells = assay: MTT assay to measure cell viability
Experimental: Cell viability was detected using an MTT assay kit (Z-Cytox). Briefly, the SH-SY5Y cells were seeded on a 96-well plate at a density of 2×10^4 cells/well with 100 μL of a culture medium. After 24 hours, the SH-SY5Y cells were treated with AKNS-2 and/or MPP^+ having desired concentrations to identify cytotoxicity of AKNS-2 and MPP^+. After 24 hours, 10 μL of the MTT reagent was added to each well of the 96-well plate including the cells. Absorbance was measured at 450 nm using a microplate spectrophotometer (BioTek, Vt., USA). […] The next day, absorbance was measured at 1 hour after adding the MTT reagent thereto.

[4] = 3-MA 5 mM 30 minutes before AKNS-2 10 μM
[5] = 10 μM U0126 30 minutes before AKNS-2 (5 μM and 10 μM)

CO/C1=C\C(C)=C\[C@@H](C)[C@@H](O)[C@@H](C)C/C(C)=C/C=C/[C@H](OC)[C@@H]([C@@H](C)[C@@H](O)[C@H](C)[C@@]2(O)C[C@@H](O)[C@H](C)[C@@H](C(C)C)O2)OC1=O [Baf, bafilomycin A1]
AKNS-2-enhanced accumulation of LC3-II puncta with bafilomycin A1 [1]: increased green fluorescence and decreased red fluorescence | AKNS-2-enhanced accumulation of LC3-II puncta with bafilomycin A1 ([1]; listed as bafilomycin A1): AKNS-2-induced autophagy is inhibited

Cn1cnc(N)c2ncnc1-2 [Compound 3-MA, 3-methyladenine, reference compound]
AKNS-2 effect on TH expression in presence of 3-MA ([2]; 3-MA + AKNS-2 + MPP^+): advantageous effects of AKNS-2 were canceled out | expression of LC3-II with 3-MA ([2]; 3-MA vs group co-administered with AKNS-2 and MPP^+): significantly inhibited the expression of LC3-II | AKNS-2-decreased p62 expression in presence of 3-MA [3, 4]: increases p62 expression; also recorded: remarkably blocked the inhibitory effects of AKNS-2 on the expression level of p62 | AKNS-2-up-regulated LC3-II expression in presence of 3-MA [3, 4]: decreases LC3-II expression; also recorded: the increased expression was significantly decreased

N#CC(=C(/N)Sc1ccccc1N)/C(C#N)=C(\N)Sc1ccccc1N [Compound U0126, reference compound]
AKNS-2 effect on α-synuclein in presence of U0126 ([2]; 10 μM U0126 + AKNS-2 + 2 mM MPP^+): the protective effects were blocked | AKNS-2 effect on TH expression in presence of U0126 ([2]; 10 μM U0126 before AKNS-2 and 2 mM MPP^+): the effects of AKNS-2 on increasing the expression of TH were inhibited | protective effect of AKNS-2 on cell viability in presence of U0126 (SH-SY5Y cells; 10 μM U0126 + AKNS-2 (5 μM and 10 μM) + 2 mM MPP^+): cancels out protective effects of AKNS-2 on cell viability; also recorded: such enhancement was canceled out | AKNS-2-induced LC3-II expression in presence of U0126 [3, 5]: a significant decrease was observed in the expression of LC3-II; also recorded: blocked the effects of AKNS-2 (5 μM and 10 μM) on increasing the expression of LC3-II | AKNS-2-inhibited p-mTOR expression in presence of U0126 [3, 5]: considerably restored | AKNS-2-increased p-ULK expression in presence of U0126 ([3]; 10 μM U0126 + AKNS-2 10 μM): canceled out the effects of AKNS-2 (10 μM) on an increase in expression of p-ULK

C[n+]1ccc(-c2ccccc2)cc1.[I-] [MPP^+, 1-methyl-4-phenylpyridinium (MPP^+) iodide, reference compound]
cell viability (MTT) (SH-SY5Y cells; MPP^+ alone, 2 mM): significantly decreased cell viability
